# According to PubChem BioAssay AID270 (DTP/NCI, 2004):
# Several values for one entry are separate records, joined by “and”; a condition that tells them apart may be missing. Equal entries are not always repeated. Records with an inconclusive call do not appear.
# Test system: BDF1 mice, s.c. Lewis lung carcinoma, T/C %
# Assay: NCI In Vivo Anticancer Drug Screen. Data for tumor model Lewis Lung Carcinoma (subcutaneous) in B6D2F1 (BDF1) mice
# Summary of the method: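 Antitumor effect in vivo is scored from survival or tumor burden, reported as treated relative to vehicle controls.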
compound,measurement,setting,value
COc1ccc2c3c(c4cc(OC)c(OC)cc4c2c1)C[C@H]1CCCCN1C3,T/C,"endpoint: mean tumor weight, dose: 0.25 mg/kg/injection, schedule: Q01DX011 (ip), vehicle: other, higher = larger tumour",90 % of control and 100 % of control
same,T/C,"endpoint: mean tumor weight, dose: 0.5 mg/kg/injection, schedule: Q01DX011 (ip), vehicle: other, higher = larger tumour",190 % of control
same,T/C,"endpoint: mean tumor weight, dose: 0.75 mg/kg/injection, schedule: Q01DX011 (ip), vehicle: other, higher = larger tumour",87 % of control
c1ccc(N/N=C2/CCN3CCCc4cccc2c43)cc1,T/C,"endpoint: median survival time, dose: 12.5 mg/kg/injection, schedule: Q04DX003 (ip), vehicle: DMSO, higher = longer survival",105 % of control
same,T/C,"endpoint: median survival time, dose: 25.0 mg/kg/injection, schedule: Q04DX003 (ip), vehicle: DMSO, higher = longer survival",87 % of control
same,T/C,"endpoint: median survival time, dose: 50.0 mg/kg/injection, schedule: Q04DX003 (ip), vehicle: DMSO, higher = longer survival",109 % of control
O=NN(CCCl)C(=O)Nc1ncc([N+](=O)[O-])s1,T/C,"endpoint: median survival time, dose: 154.0 mg/kg/injection, schedule: Q01DX001 (ip), vehicle: other, higher = longer survival",112 % of control
O=c1cc(-c2ccccc2)oc2ccc(O)cc12,T/C,"endpoint: mean tumor weight, dose: 3.13 mg/kg/injection, schedule: Q01DX011 (ip), vehicle: saline, higher = larger tumour",109 % of control
same,T/C,"endpoint: mean tumor weight, dose: 6.25 mg/kg/injection, schedule: Q01DX011 (ip), vehicle: saline, higher = larger tumour",68 % of control
same,T/C,"endpoint: mean tumor weight, dose: 25.0 mg/kg/injection, schedule: Q01DX010 (ip), vehicle: saline, higher = larger tumour",77 % of control
same,T/C,"endpoint: mean tumor weight, dose: 25.0 mg/kg/injection, schedule: Q01DX011 (ip), vehicle: saline, higher = larger tumour",119 % of control
same,T/C,"endpoint: mean tumor weight, dose: 50.0 mg/kg/injection, schedule: Q01DX010 (ip), vehicle: saline, higher = larger tumour",101 % of control
same,T/C,"endpoint: mean tumor weight, dose: 100.0 mg/kg/injection, schedule: Q01DX010 (ip), vehicle: saline, higher = larger tumour",86 % of control
same,T/C,"endpoint: mean tumor weight, dose: 200.0 mg/kg/injection, schedule: Q01DX010 (ip), vehicle: saline, higher = larger tumour",97 % of control
C[C@]12C=CC(=O)C=C1CC[C@@H]1[C@@H]2[C@@H](O)C[C@@]2(C)[C@H]1CC[C@]2(O)C(=O)COC(=O)C1CCCC1,T/C,"endpoint: mean tumor weight, dose: 9.0 mg/kg/injection, schedule: Q01DX011 (sc), vehicle: steriod suspending solution, higher = larger tumour",68 % of control
same,T/C,"endpoint: mean tumor weight, dose: 13.0 mg/kg/injection, schedule: Q01DX011 (sc), vehicle: steriod suspending solution, higher = larger tumour",51 % of control
same,T/C,"endpoint: mean tumor weight, dose: 20.0 mg/kg/injection, schedule: Q01DX011 (sc), vehicle: steriod suspending solution, higher = larger tumour",77 % of control
same,T/C,"endpoint: mean tumor weight, dose: 30.0 mg/kg/injection, schedule: Q01DX011 (sc), vehicle: steriod suspending solution, higher = larger tumour",52 % of control
O=NN(CCCl)C(=O)NC1CCS(=O)(=O)CC1,T/C,"endpoint: median survival time, dose: 5.0 mg/kg/injection, schedule: Q04DX004 (ip), vehicle: Klucel (hydroxypropylcellulose) (HPC), higher = longer survival",180 % of control
same,T/C,"endpoint: median survival time, dose: 7.0 mg/kg/injection, schedule: Q04DX004 (ip), vehicle: Klucel (hydroxypropylcellulose) (HPC), higher = longer survival",231 % of control
same,T/C,"endpoint: median survival time, dose: 7.0 mg/kg/injection, schedule: Q04DX004 (ip), vehicle: carboxymethylcellulose (CMC), higher = longer survival",121 % of control and 345 % of control
same,T/C,"endpoint: median survival time, dose: 8.5 mg/kg/injection, schedule: Q04DX004 (ip), vehicle: carboxymethylcellulose (CMC), higher = longer survival",109 % of control
same,T/C,"endpoint: median survival time, dose: 8.5 mg/kg/injection, schedule: Q07DX002 (ip), vehicle: carboxymethylcellulose (CMC), higher = longer survival",218 % of control
same,T/C,"endpoint: median survival time, dose: 10.0 mg/kg/injection, schedule: Q04DX004 (ip), vehicle: carboxymethylcellulose (CMC), higher = longer survival",123 % of control
same,T/C,"endpoint: median survival time, dose: 11.0 mg/kg/injection, schedule: Q07DX002 (ip), vehicle: carboxymethylcellulose (CMC), higher = longer survival",381 % of control
same,T/C,"endpoint: median survival time, dose: 14.0 mg/kg/injection, schedule: Q07DX002 (ip), vehicle: carboxymethylcellulose (CMC), higher = longer survival",200 % of control
C=CC(=O)NCNC(=O)C=C,T/C,"endpoint: mean tumor weight, dose: 44.0 mg/kg/injection, schedule: Q01DX011 (ip), vehicle: saline, higher = larger tumour",101 % of control
same,T/C,"endpoint: mean tumor weight, dose: 66.0 mg/kg/injection, schedule: Q01DX011 (ip), vehicle: saline, higher = larger tumour",48 % of control
same,T/C,"endpoint: mean tumor weight, dose: 100.0 mg/kg/injection, schedule: Q01DX011 (ip), vehicle: saline, higher = larger tumour",56 % of control
CCn1cnc2c(SC)nc(N)nc21,T/C,"endpoint: mean tumor weight, dose: 100.0 mg/kg/injection, schedule: Q01DX011 (ip), vehicle: other, higher = larger tumour",50 % of control
same,T/C,"endpoint: mean tumor weight, dose: 250.0 mg/kg/injection, schedule: Q01DX011 (ip), vehicle: other, higher = larger tumour",60 % of control
same,T/C,"endpoint: mean tumor weight, dose: 500.0 mg/kg/injection, schedule: Q01DX011 (ip), vehicle: other, higher = larger tumour",67 % of control
same,T/C,"endpoint: mean tumor weight, dose: 1000.0 mg/kg/injection, schedule: Q01DX011 (ip), vehicle: other, higher = larger tumour",42 % of control
Cc1cc2oc(=O)c3c(c2c(O)c1CN1CCCC1)CCCC3,T/C,"endpoint: median survival time, dose: 29.0 mg/kg/injection, schedule: Q01DX009 (ip), vehicle: Klucel (hydroxypropylcellulose) (HPC), higher = longer survival",94 % of control
same,T/C,"endpoint: median survival time, dose: 58.0 mg/kg/injection, schedule: Q01DX009 (ip), vehicle: Klucel (hydroxypropylcellulose) (HPC), higher = longer survival",106 % of control
same,T/C,"endpoint: median survival time, dose: 116.0 mg/kg/injection, schedule: Q01DX009 (ip), vehicle: Klucel (hydroxypropylcellulose) (HPC), higher = longer survival",106 % of control
same,T/C,"endpoint: median survival time, dose: 232.0 mg/kg/injection, schedule: Q01DX009 (ip), vehicle: Klucel (hydroxypropylcellulose) (HPC), higher = longer survival",94 % of control
